# Results reported in PMC4792161, “A novel pyrazole derivative protects from ovariectomy-induced osteoporosis through the inhibition of NADPH oxidase” (Scientific Reports, 2016).
# Where a name gives a salt, the structure may show the parent alone. Marks after values point to notes of the source that are not given here.
# Assays:
# [1] = test system: OVX-induced osteoporotic ddY mice; experiment: Femur histopathology-histomorphometry in OVX mice; assay type: in vivo
# Method: (§1) Risedronate sodium (2.5 mg/kg) served as a reference compound. […] Histopathology and histomorphometrical analyses including trabecular bone volume (BV/TV), trabecular bone number (Tb.N), trabecular bone length (Tb.Le), trabecular bone thickness (Tb.Th), cortical bone thickness (Ct.Th), OC number (N.Oc), bone mineral density (BMD) and bone strength (failure load, FL) were conducted.
# (§2) The study was reviewed and approved by the Institutional Animal Care and Use Committee (IACUC) of Center for Laboratory Animal Sciences, Ewha Industry-University Cooperation Foundation, Ewha Womans University. Experimental methods were carried out in accordance with the approved ethic guidelines in Ewha Industry-University Cooperation Foundation, Ewha Womans University. Beginning 4 weeks after OVX, the female ddY mice received 2.5, 5, 10, or 20 mg/kg of #18–278, 2.5 mg/kg of risedronate, or vehicle once daily for 28 days. The Changes in body weight, bone weight, bone mineral density (BMD), failure load (FL), bone calcium (Ca), inorganic phosphorus (P) contents, histology and histomorphology were monitored. Serum osteocalcin and bone specific alkaline phosphatase (bALP) were monitored in mice receiving Ewha-18278.
# The left side of femur of each mouse was separated and fixed in 10% neutral buffered formalin and decalcified in a solution comprised of 24.4% formic acid and 0.5N sodium hydroxide for 5 days, with spent solution replaced with fresh solution each day. Each sample was embedded in paraffin, sectioned to a thickness of 3–4 μm and exposed to with Hematoxylin & Eosin (H&E) stain. Histomorphometry was conducted as for bone mass and structure with bone resorption in a uniform area of epiphyseal regions of femur (growth plate regions were excluded). Cortical bone thickness was measured in the mid-shaft region of the femur.
# [2] = test system: OVX-induced osteoporotic ddY mice; experiment: Bone strength (failure load, three-point bending test) in OVX mice; assay type: in vivo; conditions: oral once daily 28 days; risedronate 2.5 mg/kg
# [3] = test system: OVX-induced osteoporotic ddY mice; experiment: Tibia weights (wet, dry, ash) in OVX mice; assay type: in vivo
# Method: The right sides of femur and tibia were weighed and then dried at 120 °C for 8 hours. The dried bones were carbonized at 800 °C for 6 hours in a furnace (Daihan Scientific, Korea) to detect ash absolute weights, after measurement of BMD and failure load. To reduce the individual body weight differences, the relative weight (%) was calculated using body weight at sacrifice and absolute weight as [Relative bone weights = (Absolute bone weight/Body weight at sacrifice) ×100]. In addition, ashed bones were ground and dissolved in nitric acid. In diluted solution, Ca and P contents were calculated (mg/g bone) using an orthocresolphthalein complex and enzyme methods, respectively. The Ca/P ratio (%) was calculated as (Tibia Ca contents/Tibia P contents) ×100.
# Supplementary Table S4. Tibia Weights in OVX Mice Values are expressed mean ± S.D. of eight mice Risedronate sodium was administered at 2.5mg/kg levels a p<0.01 as compared with sham control […]
# material OVX = ovariectomy
# Groups Tibia absolute weights (g) Tibia relative weights (% of body weight)Wet Dry Ash Wet Dry Ash
# [4] = Direct ROS (H2O2) scavenging in vitro; conditions: 20 μM compound, 1 mM H2O2
# Excerpt: Based on the notion that the differentiation of OCs is mediated by Nox1/2/4-dependent ROS generation, we have performed a high throughput enzyme inhibitor screening assay to identify chemical compounds having Nox1/2/4 inhibitory activity for the development of an anti-osteoporosis agent. Purified Drosophila membranes expressing human Nox1, Nox2, or Nox4 were used to monitor ROS production by determining the oxidation of lucigenin, evident as chemiluminescence, in the absence or presence of chemical compound[18]. A chemical library containing 31,000 compounds was screened to identify Nox inhibitors. […] (Fig. 1B, Supplementary Fig. S2). […] Moreover, we investigated whether Ewha-18278 can directly scavenge ROS in vitro.
# Supplementary Figure S3. (A) Ewha-18278 compounds can not directly scavenge superoxide or other reactive species in vitro. ROS (H2O2) measured with lucigenin. Reaction mixtures contained 1 […]
# Luminescence measured over 30 min at 37
# °C with luminometor (Gloma X luminometor, Turner BioSystem). […]
# the phagocytosis of zymosan. […]
# incubated with FITC-zymosan particles, and internalized fluorescence was measured by flow cytometry. The data are presented as the MFI of internalized FITC. Data represent mean ± S.D. […]
# xanthine oxidase = xanthine oxidase (Bos taurus, UniProt P80457); experiment: Xanthine oxidase assay (lucigenin); assay type: biochemical
# Method: Xanthine oxidase activity was measured by lucigenin. Reaction mixtures contained 0.1 mU xanthine oxidase, 0.25 mM Xanthine, and 0.4 mM lucigenin with the indicated inhibitor (0–20 μM). Luminescence measured over 30 min at 37 °C with luminometor (DTX800, Beckman coulter).
# [5] = test system: OVX-induced osteoporotic ddY mice; experiment: OVX-induced osteoporosis in ddY mice, overall anti-osteoporotic effect; assay type: in vivo
# Method: as §1, §2
# [6] = 2.5 mg/kg oral once daily 28 days
# [7] = 5 mg/kg oral once daily 28 days
# [8] = 10 mg/kg oral once daily 28 days
# [9] = 20 mg/kg oral once daily 28 days
# Chain of xanthine oxidase (P80457 2-1332): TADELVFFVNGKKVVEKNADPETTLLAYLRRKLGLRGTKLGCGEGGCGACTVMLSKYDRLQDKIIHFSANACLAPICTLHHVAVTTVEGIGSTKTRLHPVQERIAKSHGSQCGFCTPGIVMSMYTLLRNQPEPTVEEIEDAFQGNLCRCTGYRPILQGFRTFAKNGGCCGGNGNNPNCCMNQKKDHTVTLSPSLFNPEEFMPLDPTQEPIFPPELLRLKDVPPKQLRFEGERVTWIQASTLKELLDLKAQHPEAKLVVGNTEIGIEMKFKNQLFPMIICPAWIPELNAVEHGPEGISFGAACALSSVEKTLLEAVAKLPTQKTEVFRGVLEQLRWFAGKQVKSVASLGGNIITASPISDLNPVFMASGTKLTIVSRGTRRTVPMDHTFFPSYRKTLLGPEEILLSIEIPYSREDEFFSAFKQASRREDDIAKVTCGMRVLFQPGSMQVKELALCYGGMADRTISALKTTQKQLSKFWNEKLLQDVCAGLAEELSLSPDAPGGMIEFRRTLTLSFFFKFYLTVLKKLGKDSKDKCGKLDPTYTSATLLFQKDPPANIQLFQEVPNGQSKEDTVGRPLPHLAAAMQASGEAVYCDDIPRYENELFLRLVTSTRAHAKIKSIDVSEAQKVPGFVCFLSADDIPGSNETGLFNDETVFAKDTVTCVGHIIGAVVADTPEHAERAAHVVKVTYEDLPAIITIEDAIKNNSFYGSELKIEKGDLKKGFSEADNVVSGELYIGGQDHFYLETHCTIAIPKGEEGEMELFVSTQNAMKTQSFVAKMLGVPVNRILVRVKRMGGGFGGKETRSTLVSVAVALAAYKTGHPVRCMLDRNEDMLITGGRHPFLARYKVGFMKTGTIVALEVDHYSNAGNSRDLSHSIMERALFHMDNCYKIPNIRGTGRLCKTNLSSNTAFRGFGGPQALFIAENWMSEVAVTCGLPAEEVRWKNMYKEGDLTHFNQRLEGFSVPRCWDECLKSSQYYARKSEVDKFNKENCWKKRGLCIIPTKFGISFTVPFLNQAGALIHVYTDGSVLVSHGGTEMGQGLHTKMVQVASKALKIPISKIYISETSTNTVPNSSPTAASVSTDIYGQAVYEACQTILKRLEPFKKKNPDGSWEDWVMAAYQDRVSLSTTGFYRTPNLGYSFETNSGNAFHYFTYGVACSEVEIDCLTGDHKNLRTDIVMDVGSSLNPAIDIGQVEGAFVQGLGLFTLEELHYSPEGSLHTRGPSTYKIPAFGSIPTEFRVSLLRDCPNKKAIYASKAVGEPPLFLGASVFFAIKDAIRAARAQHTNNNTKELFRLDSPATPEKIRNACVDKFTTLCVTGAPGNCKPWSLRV
compound,measurement,setting,value
"CCCc1c(-c2ccccc2)nn(-c2ccccn2)c1O [Ewha-18278, 3-phenyl-1-(pyridin-2-yl)-4-propyl-1H-5-hydroxypyrazole HCl]",BV/TV (trabecular bone volume),[1]; [6],23.62 ± 3.63 ^a %
same,Ct.Th (cortical bone thickness),[1]; [6],136.48 ± 10.32 ^a μm
same,"N.OC/BS (osteoclast cell number, N/epiphyseal)",[1]; [6],13.75 ± 2.25 ^e numbers
same,"Tb.N (trabecular bone number, N/epiphyseal)",[1]; [6],9.75 ± 1.67 ^e numbers
same,Tb.Th (trabecular bone thickness),[1]; [6],40.98 ± 5.94 ^a μm
same,BV/TV (trabecular bone volume),[1]; [7],29.06 ± 2.72 ^ac %
same,Ct.Th (cortical bone thickness),[1]; [7],159.04 ± 13.45 ^ac μm
same,"N.OC/BS (osteoclast cell number, N/epiphyseal)",[1]; [7],10.63 ± 2.77 ^eg numbers
same,"Tb.N (trabecular bone number, N/epiphyseal)",[1]; [7],11.25 ± 1.04 ^eh numbers
same,Tb.Th (trabecular bone thickness),[1]; [7],52.98 ± 8.96 ^ac μm
same,BV/TV (trabecular bone volume),[1]; [8],33.63 ± 3.51 ^c %
same,Ct.Th (cortical bone thickness),[1]; [8],165.52 ± 12.06 ^ac μm
same,"N.OC/BS (osteoclast cell number, N/epiphyseal)",[1]; [8],6.63 ± 1.30 ^eg numbers
same,"Tb.N (trabecular bone number, N/epiphyseal)",[1]; [8],15.38 ± 1.60 ^eg numbers
same,Tb.Th (trabecular bone thickness),[1]; [8],68.14 ± 11.23 ^ac μm
same,BV/TV (trabecular bone volume),[1]; [9],34.07 ± 3.89 ^c %
same,Ct.Th (cortical bone thickness),[1]; [9],198.06 ± 12.51 ^c μm
same,"N.OC/BS (osteoclast cell number, N/epiphyseal)",[1]; [9],5.63 ± 1.41 ^fg numbers
same,"Tb.N (trabecular bone number, N/epiphyseal)",[1]; [9],16.63 ± 1.19 ^eg numbers
same,Tb.Th (trabecular bone thickness),[1]; [9],71.98 ± 12.20 ^ac μm
same,bone strength (FL) of femur and tibia compared to control OVX,[2],enhanced
same,"Tibia absolute weights, Ash",[3]; [6],0.027 g
same,"Tibia absolute weights, Dry",[3]; [6],0.051 g
same,"Tibia absolute weights, Wet",[3]; [6],0.070 g
same,"Tibia absolute weights, Ash",[3]; [7],0.030 g
same,"Tibia absolute weights, Dry",[3]; [7],0.051 g
same,"Tibia absolute weights, Wet",[3]; [7],0.071 g
same,"Tibia absolute weights, Ash",[3]; [8],0.030 g
same,"Tibia absolute weights, Dry",[3]; [8],0.052 g
same,"Tibia absolute weights, Wet",[3]; [8],0.071 g
same,"Tibia absolute weights, Ash",[3]; [9],0.032 g
same,"Tibia absolute weights, Dry",[3]; [9],0.052 g
same,"Tibia absolute weights, Wet",[3]; [9],0.071 g
same,change in hydrogen peroxide concentration (ROS scavenging),[4],had no effect
same,inhibitory activity on xanthine oxidase,xanthine oxidase,no inhibitory activities
same,anti-osteoporotic effects,[5]; 2.5 mg/kg,did not produce obvious favorable anti-osteoporotic effects
same,anti-osteoporotic effects compared to risedronate (2.5 mg/kg/day for 28 days),[5]; 10 mg/kg/day for 28 days,similar
same,cortical bone thickness compared to risedronate,[5]; OVX mice,significantly increased cortical bone thickness
same,number of OCs in the tibia and femur,[5]; compared to control mice,decreased number of OCs
same,optimal effective dosage,"[5]; oral once daily 28 days, OVX mice",10 mg/kg
